Measured values: US20240360177A1, “PEPTIDES WITH ANTIMICROBIAL ACTIVITIES” (priority 2021, published 2024)
Converted amounts (≈) assume the structure as drawn. Like-named read-outs stand apart in the source and are kept apart here. Non-standard residues stand in square brackets, D forms with d. Residues, ends and D or L forms follow the SMILES beside them. Ahp = NCCCCCCC(=O)O; Ava = NCCCCC(=O)O

Tests used:
C. tropicalis [1] = test system: C. tropicalis
[2] = test system: Microsporum gypseum ATCC 14683
HepG2 cells [3] = test system: HepG2 cells
C. auris [4] = test system: C. auris
[5] = test system: Epidermophyton floccosum ATCC 52066
C. neoformans [6] = test system: C. neoformans
C. albicans [7] = test system: C. albicans
[8] = test system: Trichophyton rubrum ATCC MYA-4438
Scedosporium spp. = conditions: N = 2 strains; 72 hrs
C. dubliniensis [9] = conditions: ATCC MYA-578; 24 hrs
human red blood cells = assay type: cell-based; conditions: PBS, 37° C., 1 hr
Protocol: Hemolysis is a liability for many other cationic peptides which prevented their utility to treat systemic infections. The hemolytic potential of the peptides was tested using red blood cells collected from fresh human blood after centrifugation at room temperature and washed in phosphate buffered saline (pH 7.4) three times and then incubated in phosphate buffered saline (PBS) at 37° C. for 1 hr with the peptides at concentrations of 3-300 μg/mL. Triton-X100 was used as the positive control while the vehicle (PBS) was used as the negative control. Amphotericin B and melittin, both known to be hemolytic were used as reference compounds. Following incubation, the mixture was centrifuged at room temperature, and the supernatant was separated and analyzed for light absorbance at a single wavelength of 410 nm. The background absorbance reading from the negative control was subtracted from all samples. The Triton-X-100 sample was used to represent 100% lysis. All test compound and positive control samples were normalized to this value to determine the percent lysis caused by the test compounds and the positive controls at each concentration.

C. parapsilosis [10] = test system: C. parapsilosis
C. gattii [11] = test system: C. gattii
C. krusei [12] = test system: C. krusei
C. glabrata [13] = test system: C. glabrata
C. tropicalis [14] = assay: microbe, parasite or virus in culture; conditions: Candida tropicalis, ATCC90874, 24 h, read-out: MIC C. tropicalis
[15] = test system: Trichophyton rubrum ATCC MYA-4438; assay: microbe, parasite or virus in culture; conditions: read-out: MIC Trichophyton rubrum
C. neoformans [16] = assay: microbe, parasite or virus in culture; conditions: Cryptococcus neoformans, ATCC90112, 72 h, read-out: MIC C. neoformans
C. krusei [17] = assay: microbe, parasite or virus in culture; conditions: Pichia kudriavzevii, 24 h, read-out: MIC C. krusei
C. auris [18] = assay: microbe, parasite or virus in culture; conditions: Candidozyma auris, 24 h, read-out: MIC C. auris
C. parapsilosis [19] = assay: microbe, parasite or virus in culture; conditions: Lodderomyces parapsilosis, ATCC22019, 24 h, read-out: MIC C. parapsilosis
C. glabrata [20] = assay: microbe, parasite or virus in culture; conditions: Nakaseomyces glabratus, ATCC90030, 24 h, read-out: MIC C. glabrata
C. gattii [21] = assay: microbe, parasite or virus in culture; conditions: Cryptococcus gattii, 72 h, read-out: MIC C. gattii
[22] = test system: Microsporum gypseum ATCC 14683; assay: microbe, parasite or virus in culture; conditions: Nannizzia gypsea, ATCC14683, read-out: MIC Microsporum gypseum
C. albicans [23] = assay: microbe, parasite or virus in culture; conditions: Candida albicans, ATCC90028, 24 h, read-out: MIC C. albicans
[24] = test system: Epidermophyton floccosum ATCC 52066; assay: microbe, parasite or virus in culture; conditions: ATCC52066, read-out: MIC Epidermophyton floccosum
C. dubliniensis [25] = assay: microbe, parasite or virus in culture; conditions: Candida dubliniensis, 24 h, read-out: MIC C. dubliniensis
[26] = test system: Mycobacterium smegmatis ATCC 700084; assay type: cell-based; conditions: ATCC 700084, 48 h
[27] = test system: Pseudomonas aeruginosa ATCC 27853; assay type: cell-based
[28] = test system: Salmonella senftenberg CDC 127; assay type: cell-based
[29] = test system: Escherichia coli ATCC 25922; assay type: cell-based
[30] = test system: Staphylococcus aureus ATCC 29213; assay type: cell-based
[31] = test system: Enterococcus faecium ATCC 700221; conditions: CAMHB
[32] = test system: Klebsiella pneumoniae ATCC 13883; assay type: cell-based
[33] = test system: Shigella sonnei MMX 10772; assay: Antibacterial broth microdilution MIC, Shigella sonnei; assay type: cell-based; conditions: CAMHB
HepG2 cells [34] = assay: Cytotoxicity in HepG2 cells, intracellular ATP assay; conditions: Homo sapiens, HepG2, read-out: EC50 in HepG2 ATP assay, internal control, range across studies

C[C@@H]1[C@H](O)[C@@H](C)/C=C/C=C/C=C/C=C/C=C/C=C/C=C/[C@H](O[C@@H]2O[C@H](C)[C@@H](O)[C@H](N)[C@@H]2O)C[C@@H]2O[C@](O)(C[C@@H](O)C[C@@H](O)[C@H](O)CC[C@@H](O)C[C@@H](O)CC(=O)O[C@H]1C)C[C@H](O)[C@H]2C(=O)O [AMB, amphotericin B, reference compound]
MIC C. tropicalis (C. tropicalis [1]; ATCC 90874, 24 hrs): 0.5 µg/mL (≈ 0.541 µM) | MIC Microsporum gypseum ([2]; 4-6 days): 0.5 µg/mL (≈ 0.541 µM) | MIC Range Fusarium spp. (Fusarium spp.; N = 3 strains, 48 hrs): 1 µg/mL (≈ 1.08 µM) | EC50 cytotoxicity in HepG2, positive controls across studies (HepG2 cells [3]): 5.79 to 14.13 µg/mL | MIC C. auris (C. auris [4]; CDC 386, 24 hrs): 1 µg/mL (≈ 1.08 µM) | MIC Epidermophyton floccosum ([5]; 4-6 days): 0.12 µg/mL (≈ 0.13 µM) | MIC C. neoformans (C. neoformans [6]; ATCC 90112, 72 hrs): 0.25 µg/mL (≈ 0.271 µM) | MIC C. albicans (C. albicans [7]; ATCC 90028 or 90029, 24 hrs): 0.5 µg/mL (≈ 0.541 µM) | MIC Trichophyton rubrum ([8]; 4-6 days): ≤0.06 µg/mL | MIC Range Scedosporium spp. (Scedosporium spp.): 1 to 2 µg/mL | MIC C. dubliniensis (C. dubliniensis [9]): 0.25 µg/mL (≈ 0.271 µM) | EC50 hemolysis (50% lysis) (human red blood cells): 6.95 µg/mL (≈ 7.52 µM) | MIC C. parapsilosis (C. parapsilosis [10]; ATCC 22019, 24 hrs): 0.25 µg/mL (≈ 0.271 µM) | MIC C. gattii (C. gattii [11]; ATCC MYA-4093, 72 hrs): 0.5 µg/mL (≈ 0.541 µM) | MIC C. krusei (C. krusei [12]; MMX 7135, 24 hrs): 0.5 µg/mL (≈ 0.541 µM) | MIC C. glabrata (C. glabrata [13]; ATCC 90030, 24 hrs): 0.5 µg/mL (≈ 0.541 µM)

CC[C@H](C)C[C@H](C)CCCCCCCCC(=O)N[C@H]1C[C@@H](O)[C@@H](NCCN)NC(=O)[C@@H]2[C@@H](O)CCN2C(=O)[C@H]([C@H](O)CCN)NC(=O)[C@H]([C@H](O)[C@@H](O)c2ccc(O)cc2)NC(=O)[C@@H]2C[C@@H](O)CN2C(=O)[C@H]([C@@H](C)O)NC1=O [CAS, caspofungin]
MIC (C. tropicalis [14]): 0.03 µg/mL (≈ 0.0274 µM) | MIC [15]: 2 µg/mL (≈ 1.83 µM) | MIC (C. neoformans [16]): 16 µg/mL (≈ 14.6 µM) | MIC Range Fusarium spp. (Fusarium spp.; N = 3 strains, 48 hrs): 32 µg/mL (≈ 29.3 µM) | MIC (C. krusei [17]): 0.25 µg/mL (≈ 0.229 µM) | MIC (C. auris [18]): 0.06 µg/mL (≈ 0.0549 µM) | MIC (C. parapsilosis [19]): 0.25 µg/mL (≈ 0.229 µM) | MIC Range Scedosporium spp. (Scedosporium spp.): 32 µg/mL (≈ 29.3 µM) | MIC (C. glabrata [20]): 0.06 µg/mL (≈ 0.0549 µM) | MIC (C. gattii [21]): 16 µg/mL (≈ 14.6 µM) | MIC [22]: 0.12 µg/mL (≈ 0.11 µM) | MIC (C. albicans [23]): 0.03 µg/mL (≈ 0.0274 µM) | MIC [24]: 0.06 µg/mL (≈ 0.0549 µM)

OC(Cn1cncn1)(Cn1cncn1)c1ccc(F)cc1F [FLC, fluconazole]
MIC (C. tropicalis [14]): 0.25 µg/mL (≈ 0.816 µM) | MIC [15]: 0.5 µg/mL (≈ 1.63 µM) | MIC (C. neoformans [16]): 4 µg/mL (≈ 13.1 µM) | MIC Range Fusarium spp. (Fusarium spp.; N = 3 strains, 48 hrs): >32 µg/mL | MIC (C. krusei [17]): 8 µg/mL (≈ 26.1 µM) | MIC (C. auris [18]): > 32 µg/mL | MIC (C. parapsilosis [19]): 2 µg/mL (≈ 6.53 µM) | MIC (C. glabrata [20]): 4 µg/mL (≈ 13.1 µM) | MIC (C. gattii [21]): 8 µg/mL (≈ 26.1 µM) | MIC (C. dubliniensis [25]): 0.5 µg/mL (≈ 1.63 µM) | MIC [22]: 2 µg/mL (≈ 6.53 µM) | MIC (C. albicans [23]): 0.25 µg/mL (≈ 0.816 µM) | MIC [24]: 1 µg/mL (≈ 3.27 µM)

N=C(N)NCCC[C@@H](N)C(=O)N[C@@H](CCCNC(=N)N)C(=O)N[C@H](CCCNC(=N)N)C(=O)NCCCCCCC(=O)N[C@H](CCCNC(=N)N)C(=O)N[C@@H](CCCNC(=N)N)C(=O)N[C@H](CCCNC(=N)N)C(=O)NCCCCC(=O)N[C@H](CCCNC(=N)N)C(=O)N[C@@H](CCCNC(=N)N)C(=O)N[C@H](CCCNC(=N)N)C(=O)N[C@@H](CCCNC(=N)N)C(=O)NCCCCC(=O)N[C@H](CCCNC(=N)N)C(=O)N[C@@H](CCCNC(=N)N)C(=O)N[C@H](CCCNC(=N)N)C(=O)N[C@@H](CCCNC(=N)N)C(=O)N[C@@H](CS)C(=O)O [SEQ ID NO: 5, rRr-(Ahp)-rRr-(Ava)-rRrR-(Ava)-rRrR-Cys] (H-[dR]R[dR][Ahp][dR]R[dR][Ava][dR]R[dR]R[Ava][dR]R[dR]RC-OH)
MIC C. tropicalis (C. tropicalis [1]; 24 h): 0.25 µg/mL (≈ 0.0949 µM) | MIC Microsporum gypseum [2]: 64 µg/mL (≈ 24.3 µM) | MIC Range Fusarium spp. (Fusarium spp.; 48 h): 0.5 to 4 µg/mL | MIC C. auris (C. auris [4]; 24 h): 0.25 µg/mL (≈ 0.0949 µM) | MIC Epidermophyton floccosum [5]: 16 µg/mL (≈ 6.08 µM) | MIC Mycobacterium smegmatis [26]: 2 µg/mL (≈ 0.76 µM) | MIC Pseudomonas aeruginosa [27]: 32 µg/mL (≈ 12.2 µM) | MIC C. neoformans (C. neoformans [6]; 72 h): 1 µg/mL (≈ 0.38 µM) | MIC Salmonella senftenberg [28]: 16 µg/mL (≈ 6.08 µM) | MIC C. albicans (C. albicans [7]; 24 h): 1 µg/mL (≈ 0.38 µM) | MIC Escherichia coli [29]: 16 µg/mL (≈ 6.08 µM) | MIC Trichophyton rubrum [8]: 2 µg/mL (≈ 0.76 µM) | MIC Staphylococcus aureus [30]: 8 µg/mL (≈ 3.04 µM) | MIC C. parapsilosis (C. parapsilosis [10]; 24 h): 0.25 µg/mL (≈ 0.0949 µM) | MIC Enterococcus faecium [31]: 16 µg/mL (≈ 6.08 µM) | MIC C. gattii (C. gattii [11]; 72 h): 0.5 µg/mL (≈ 0.19 µM) | MIC C. krusei (C. krusei [12]; 24 h): 1 µg/mL (≈ 0.38 µM) | MIC C. glabrata (C. glabrata [13]; 24 h): 0.5 µg/mL (≈ 0.19 µM)

N=C(N)NCCC[C@H](NC(=O)[C@@H](CCCNC(=N)N)NC(=O)[C@H](CCCNC(=N)N)NC(=O)[C@@H](CCCNC(=N)N)NC(=O)CCCCNC(=O)[C@H](CCCNC(=N)N)NC(=O)[C@@H](CCCNC(=N)N)NC(=O)[C@H](CCCNC(=N)N)NC(=O)[C@@H](CCCNC(=N)N)NC(=O)CCCCNC(=O)[C@@H](CCCNC(=N)N)NC(=O)[C@H](CCCNC(=N)N)NC(=O)[C@@H](CCCNC(=N)N)NC(=O)CCCCCCNC(=O)[C@@H](CCCNC(=N)N)NC(=O)[C@H](CCCNC(=N)N)NC(=O)[C@@H](CCCNC(=N)N)NC(=O)[C@@H](N)CS)C(=O)O [SEQ ID NO: 6, Cys-rRr-(Ahp)-rRr-(Ava)-rRrR-(Ava)-rRrR] (H-C[dR]R[dR][Ahp][dR]R[dR][Ava][dR]R[dR]R[Ava][dR]R[dR]R-OH)
MIC C. tropicalis (C. tropicalis [1]; 24 h): 1 µg/mL (≈ 0.38 µM) | MIC Range Fusarium spp. (Fusarium spp.; 48 h): 0.25 to 0.5 µg/mL | MIC C. auris (C. auris [4]; 24 h): 4 µg/mL (≈ 1.52 µM) | MIC Mycobacterium smegmatis [26]: 1 µg/mL (≈ 0.38 µM) | MIC Pseudomonas aeruginosa [27]: 16 µg/mL (≈ 6.08 µM) | MIC Klebsiella pneumoniae [32]: 16 µg/mL (≈ 6.08 µM) | MIC Salmonella senftenberg [28]: 16 µg/mL (≈ 6.08 µM) | MIC C. albicans (C. albicans [7]; 24 h): 8 µg/mL (≈ 3.04 µM) | MIC Escherichia coli [29]: 16 µg/mL (≈ 6.08 µM) | MIC Staphylococcus aureus [30]: 8 µg/mL (≈ 3.04 µM) | MIC C. parapsilosis (C. parapsilosis [10]; 24 h): 2 µg/mL (≈ 0.76 µM) | MIC Shigella sonnei [33]: 16 µg/mL (≈ 6.08 µM) | MIC Enterococcus faecium [31]: 16 µg/mL (≈ 6.08 µM) | MIC C. gattii (C. gattii [11]; 72 h): 1 µg/mL (≈ 0.38 µM) | MIC C. krusei (C. krusei [12]; 24 h): 8 µg/mL (≈ 3.04 µM) | MIC C. glabrata (C. glabrata [13]; 24 h): 0.5 µg/mL (≈ 0.19 µM)

C=C(C)[C@H]1Cc2c(ccc3c2O[C@@H]2COc4cc(OC)c(OC)cc4[C@@H]2C3=O)O1 [rotenone, reference compound]
EC50 (HepG2 cells [34]): 129 to 594 nM
